A short description of this series: Comparative physical (blend) properties of valsartan and valsartan granules. In kind it is physicochemical. The protocol: Valsartan was added to molten Lutrol F127 (at about 60-65° C.) under continuous mixing till a uniform semi-solid mixture was obtained. Weighed quantity of microcrystalline cellulose was added to the molten semi-solid mixture under continuous mixing. The blend was then allowed to cool to room temperature and the cooled mass was crushed and passed through 20# sieve.

Each structure is given as a SMILES string.

Consider 1 compound from patent US20090123543A1, “PHARMACEUTICAL COMPOSITIONS” (priority 2006, published 2009).

Where the note is “blend property”, `CCCCC(=O)N(Cc1ccc(-c2ccccc2-c2nnn[nH]2)cc1)[C@H](C(=O)O)C(C)C` [Valsartan] came in with a Bulk density of 0.12 g/mL. The Flow entry (flow through funnel/orifice) is “as valsartan did not flow”.
